Source: ChEMBL document CHEMBL1201862, “PubChem BioAssay data set” (2004)
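Dose response: 5 concentrations. Exposure: 48 h. Format: 96-well plates. Endpoint: linear interpolation; highest concentration if not reached. Abbreviation: GI50, concentration required for 50% inhibition of growth.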 Activity calls are given as the source filed them. No stated cut-off is given here; in the data, active = GI50 up to about 1.1 µM and inactive = higher.

How the values were obtained:
Test in all cases: NCI-60 cell line screen, 48 h
[1] = test system: SN12C
[2] = test system: PC-3
[3] = test system: HCT-116
[4] = test system: HOP-92
[5] = test system: NCI/ADR-RES
[6] = test system: OVCAR-3
[7] = test system: UACC-62
[8] = test system: A549
[9] = test system: SNB-75
[10] = test system: TK-10
[11] = test system: NCI-H23
[12] = test system: CCRF-CEM
[13] = test system: SK-OV-3
[14] = test system: SK-MEL-2
[15] = test system: BT-549
[16] = test system: HT-29
[17] = test system: MDA-MB-435
[18] = test system: LOX IMVI
[19] = test system: SK-MEL-5
[20] = test system: NCI-H226
[21] = test system: U-251
[22] = test system: T47D
[23] = test system: RXF 393
[24] = test system: IGROV-1
[25] = test system: K562
[26] = test system: A498
[27] = test system: SF-268
[28] = test system: 786-0
[29] = test system: DU-145
[30] = test system: SK-MEL-28
[31] = test system: HCT-15
[32] = test system: RPMI-8226
[33] = test system: MCF7
[34] = test system: ACHN
[35] = test system: M14
[36] = test system: SF-295
[37] = test system: MDA-MB-231
[38] = test system: MOLT-4
[39] = test system: NCI-H522
[40] = test system: EKVX
[41] = test system: HOP-62
[42] = test system: KM12
[43] = test system: UO-31
[44] = test system: SF-539
[45] = test system: OVCAR-8
[46] = test system: SNB-19
[47] = test system: OVCAR-4
[48] = test system: Hs-578T
[49] = test system: COLO 205
[50] = test system: Malme-3M
[51] = test system: UACC-257
[52] = test system: NCI-H460
[53] = test system: SW-620
[54] = test system: CAKI-1
[55] = test system: MDA-N
[56] = test system: HL-60
[57] = test system: SR
[58] = test system: OVCAR-5

Measured: GI50

S=C(Nc1ccc(/N=N/c2ccccc2)cc1)SCc1ccccc1
inactive: [1] 15.7 µM | [2] 15 µM | [3] 14.8 µM | [4] 13.4 µM | [5] 17.8 µM | [6] 15.6 µM | [7] 17.8 µM | [8] 16.9 µM | [9] 18.4 µM | [10] 12.5 µM | [11] 16.4 µM | [12] 15.9 µM | [13] 38.8 µM | [14] 21.4 µM | [15] 18.3 µM | [16] 23.6 µM | [17] 16.2 µM | [18] 18.7 µM | [19] 15.7 µM | [20] 18.9 µM | [21] 16.2 µM | [22] 28.3 µM | [23] 19.6 µM | [24] 17.7 µM | [25] 19.5 µM | [26] 19.9 µM | [27] 17 µM | [28] 17.8 µM | [29] 15.9 µM | [30] 18.1 µM | [32] 5.04 µM | [33] 23.3 µM | [34] 17.5 µM | [35] 17.3 µM | [36] 17.9 µM | [37] 14.7 µM | [38] 12.1 µM | [39] 16.9 µM | [40] 24.8 µM | [41] 20.2 µM | [42] 16.2 µM | [43] 18.8 µM | [44] 18.4 µM | [45] 7.35 µM | [46] 18.5 µM | [47] 16.1 µM | [48] 22.2 µM | [49] 23.1 µM | [50] 11 µM | [51] 16.3 µM | [52] 20.2 µM | [53] 20.6 µM | [54] 16.5 µM
15.1 µM: [31]

CN(CC(=O)O)Cc1c[nH]c2ccccc12
inactive: [1] > 100 µM | [2] > 100 µM | [3] > 100 µM | [55] > 100 µM | [4] > 100 µM | [5] > 100 µM | [6] > 100 µM | [7] > 100 µM | [8] > 100 µM | [9] > 100 µM | [10] > 100 µM | [11] > 100 µM | [12] > 100 µM | [13] > 100 µM | [14] > 100 µM | [15] > 100 µM | [16] > 100 µM | [17] > 100 µM | [18] > 100 µM | [19] > 100 µM | [20] > 100 µM | [21] > 100 µM | [23] > 100 µM | [24] > 100 µM | [25] > 100 µM | [26] > 100 µM | [27] > 100 µM | [28] > 100 µM | [29] > 100 µM | [30] > 100 µM | [32] > 100 µM | [33] > 100 µM | [34] > 100 µM | [35] > 100 µM | [56] > 100 µM | [36] > 100 µM | [37] > 100 µM | [38] > 100 µM | [57] > 100 µM | [39] > 100 µM | [58] > 100 µM | [40] > 100 µM | [41] > 100 µM | [42] > 100 µM | [43] > 100 µM | [44] > 100 µM | [45] > 100 µM | [46] > 100 µM | [47] > 100 µM | [48] > 100 µM | [49] > 100 µM | [50] > 100 µM | [51] > 100 µM | [52] > 100 µM | [53] > 100 µM | [54] > 100 µM
> 100 µM: [31]
